According to patent US4404138A, “3-[2-(Azabicyclo) ethyl]-1,2,3,4-tetrahydro-5H-[1]benzopyrano[3,4-c]pyridin-5-ones” (Warner-Lambert Company, priority 1982, dated 1983):
Like-named read-outs stand apart in the source and are kept apart here.

Test system: pilocarpine-induced bronchospasm and salivary flow in mongrel dogs
Test: Pilocarpine-induced bronchospasm and salivation in anesthetized mongrel dogs
Format: in vivo
Details: for ED50: Canis lupus familiaris, anesthetized dogs, pilocarpine nitrate 0.2 mg/kg/hr infusion, cumulative IV doses; for Pulmonary Selectivity*: value >1 indicates the compound is more potent as a bronchodilator than as an antisecretory agent
Procedure: In an additional testing procedure, mongrel dogs of either sex, 10.6 to 15.3 kg, are anesthetized with sodium pentobarbital, 30 mg/kg IV and then prepared for the monitoring of pulmonary mechanics. A Buxco pulmonary mechanics computer is used to calculate pulmonary resistance, dynamic compliance, and tidal volume from transpulmonary pressure and flow data. Respiratory rate, heart rate and mean arterial blood pressure are also monitored. The femoral vein is cannulated for the delivery of drugs.
Pilocarpine nitrate (0.2 mg/kg/hr) is than infused to induce a bronchospasm and salivary flow. […] Salivary output is collected from a catheterized Wharton's duct at five minute intervals. After salivation has stabilized, three control collections are taken at five minute intervals followed by a series of cumulative IV doses of test compound (1, 3, 10, 30, 100, 300, 1000, 3000, and 10,000 μg/kg) that are injected every five minutes for 45 minutes.
The percent inhibition of both the bronchospasm and salivation are calculated for each dose with a return to prepilocarpine resistance levels or cessation of salivation equal to a 100% inhibition.

[1] = inhibition of bronchospasm, read-out: ID50 μg/kg Bronchospasm
[2] = inhibition of salivation, read-out: ID50 μg/kg Salivation

With COc1ccc2c3c(c(=O)oc2c1)CN(CCN1CC2CCC(CC2)C1)CC3 [R1=H, R2=MeO, R3=H, X=drawing 14] the ED50 [1] was 35 µg/kg, the ED50 [2] was 104 µg/kg and the “Pulmonary Selectivity*” value was 3.

In the case of COc1ccc2c3c(c(=O)oc2c1)CN(CCN1CC2CCC1CC2)CC3 [R1=H, R2=MeO, R3=H, X=drawing 16], the ED50 [1] is reported as 63 µg/kg, the ED50 [2] is reported as 102 µg/kg and the “Pulmonary Selectivity*” value is reported as 1.61.

With COc1cc2oc(=O)c3c(c2cc1OC)CCN(CCN1CC2CCC(CC2)C1)C3 [R1=MeO, R2=MeO, R3=H, X=drawing 15] the ED50 [1] was 113 µg/kg, the ED50 [2] was 530 µg/kg and the “Pulmonary Selectivity*” value was 4.7.
